Experimental data: article PMC12735872, “Development of ^18F/^11C-Labeled Pyrrolo-Pyridine/Pyrimidine LRRK2 Selective PET Radioligands” (Pharmaceuticals, 2025)

How the values were obtained:
cynomolgus monkey brain = assay: In vivo PET imaging in cynomolgus monkeys; design: VT/fp: unit not given beside the values; VT: unit not given here
Excerpt: PET measurements were led using a high-resolution research tomograph (HRRT) from Siemens Molecular Imaging (Knoxville, TN, USA). List mode data were reconstructed using the ordinary Poisson-3D-ordered subset expectation maximization (OP-3D-OSEM) algorithm, with 10 repetitions and 16 subsets while modeling the point spread function (PSF). The in-plane resolution accomplished with OP-3D-OSEM and PSF was 1.5 mm full width at half maximum (FWHM) at the center of the field of view (FOV) and 2.4 mm at 10 cm off-center.
The study was approved by the Animal Ethics Committee of the Swedish Animal Welfare Agency and was performed according to “Guidelines for planning, conducting and documenting experimental research” (Dnr 5.2.18-4170/14 issued on 11 April 2014) of the KI as well as the “Guide for the Care and Use of Laboratory Animals” [26]. NHPs were supplied by the Astrid Fagraeus Laboratory (AFL) of the Swedish Institute for Infectious Disease Control (SMI), Solna, Sweden. Anesthesia was brought by intramuscular injection of ketamine hydrochloride (approximately 10 mg/kg) at AFL and continued with a mixture of sevoflurane (0–8.0%), oxygen, and medical air through endotracheal intubation at the KI PET center. The NHP head was immobilized using a homemade fixation device. Body temperature was maintained with a Bair Hugger model 505 (Arizant Healthcare, Eden Prairie, MN, USA) and monitored via an esophageal thermometer. ECG, heart rate, respiratory rate, blood pressure, and oxygen saturation were continuously examined throughout the experiments. The fluid balance was retained with continuous infusion of saline.
A 6 min transmission scan was performed before the injection of the radioligand using a single Cs-137 source. List mode data was acquired continuously for 93 min following intravenous administration of the radioligand. Images were reconstructed into 38 frames with varying intervals: […].
For all PET measurements, radioligands were administered via intravenous injection. Regions of interest (ROIs) were manually delineated on MRI images for each NHP, for the whole brain, cerebellum, caudate, putamen, thalamus, frontal cortex, temporal cortex, amygdala, posterior cingulate cortex, anterior cingulate cortex, hippocampus, occipital cortex, parietal cortex, ventral striatum, and insula. The summed PET images over the entire duration were co-registered with the individual NHP’s MRI image. After applying the co-registration parameters to the dynamic PET data, time–activity curves were generated for each brain region for every PET measurement. The standardized uptake value (SUV) was calculated for each brain region. The total distribution volume (VT) for all three radioligands were derived using one-tissue compartment (1-TC) and two-tissue compartment (2-TC) models.
On two separate occasions, PET measurements were performed after intravenous administration of GEN-7915 or PFE-360 with a slow infusion in one NHP (NHP2). The infusion lasted for 2 min, starting 30 min before PET scanning. The pretreatment formulations were prepared by dissolving it in DMSO (5%), Kolliphor EL (15%), and PBS (80%), and the pH of the final formulation was approximately 4.5–5.0. An automated blood sampling system (ABSS) measured continuous radioactivity for the first 3 min following the radioligand injection, while manual blood samples were taken at 4, 15, 30, 60, and 90 min post-injection to measure the radioactivity and metabolism.

LRRK2 = molecular target: T1, LRRK2 (Homo sapiens, UniProt Q5S007); assay: In vitro autoradiography, human whole-hemisphere brain slices; format: binding; conditions: human brain slices, baseline
T1 construct: Human brains without pathological findings were acquired from the National Institute of Forensic Medicine; from tissue; host or cells: human post-mortem control brain, whole-hemisphere sections (100 µm)
Protocol: Human brains without pathological findings were acquired from the National Institute of Forensic Medicine at Karolinska Institutet in Stockholm, Sweden. These brains were obtained during forensic autopsies (designated as control brain) and were processed in a manner like previously described methods. […] The brain was removed, and its tissues were kept in −85 °C until the sectioning process. The whole brain hemispheric slices were subsequently maintained at −25 °C until the commencement of autoradiography procedures. […] The sectioning of the brain and the autoradiography experiments were performed at the Psychiatry section, Department of Neuroscience, Karolinska Institutet, Sweden.
Whole brain hemispheres were sectioned into horizontal slices with a thickness of 100 µm using a Leica cryomacrocut system. The autoradiographic procedures followed the same protocols established in previous studies conducted in our laboratory. The whole-hemisphere sections of 100 micron thickness were incubated for 90 min at room temperature with their corresponding radiotracer (4 MBq/200 mL) in TRIS buffer (pH 7.4) containing sodium chloride (120 mM), potassium chloride (5 mM), calcium chloride (2 mM), and albumin (0.1% w/v). After incubation, sections were washed three times in the same buffer at room temperature for five minutes each, briefly dipped in ice-cold distilled water, dried, and then placed in the phosphor imaging plates. Binding density standards were prepared by serial dilution of the radioligand stock solution in the assay buffer. Readings were taken with the Fujifilm BAS-5000 (Fujifilm, Tokyo, Japan), while quantitative analysis was conducted with the Multi Gauge 3.2 image analysis software (Fujifilm, Tokyo, Japan). For blocking experiments, adjacent brain sections were co-incubated with LuAF66583 (0.1 µM or 10 µM).

[1] = ACC, 1-TC model, pretreatment GEN-7915 (40 mg/kg)
[2] = ACC, 1-TC model, pretreatment PFE-360 (0.5 mg/kg)
[3] = ACC, 2-TC model, pretreatment GEN-7915 (40 mg/kg)
[4] = ACC, 2-TC model, pretreatment PFE-360 (0.5 mg/kg)
[5] = AMY, 1-TC model, pretreatment GEN-7915 (40 mg/kg)
[6] = AMY, 1-TC model, pretreatment PFE-360 (0.5 mg/kg)
[7] = AMY, 2-TC model, pretreatment GEN-7915 (40 mg/kg)
[8] = AMY, 2-TC model, pretreatment PFE-360 (0.5 mg/kg)
[9] = CAU, 1-TC model, pretreatment GEN-7915 (40 mg/kg)
[10] = CAU, 1-TC model, pretreatment PFE-360 (0.5 mg/kg)
[11] = CAU, 2-TC model, pretreatment GEN-7915 (40 mg/kg)
[12] = CAU, 2-TC model, pretreatment PFE-360 (0.5 mg/kg)
[13] = CB, 1-TC model, pretreatment GEN-7915 (40 mg/kg)
[14] = CB, 1-TC model, pretreatment PFE-360 (0.5 mg/kg)
[15] = CB, 2-TC model, pretreatment GEN-7915 (40 mg/kg)
[16] = CB, 2-TC model, pretreatment PFE-360 (0.5 mg/kg)
[17] = FC, 1-TC model, pretreatment GEN-7915 (40 mg/kg)
[18] = FC, 1-TC model, pretreatment PFE-360 (0.5 mg/kg)
[19] = FC, 2-TC model, pretreatment GEN-7915 (40 mg/kg)
[20] = FC, 2-TC model, pretreatment PFE-360 (0.5 mg/kg)
[21] = PUT, 1-TC model, pretreatment GEN-7915 (40 mg/kg)
[22] = PUT, 1-TC model, pretreatment PFE-360 (0.5 mg/kg)
[23] = PUT, 2-TC model, pretreatment GEN-7915 (40 mg/kg)
[24] = PUT, 2-TC model, pretreatment PFE-360 (0.5 mg/kg)
[25] = THA, 1-TC model, pretreatment GEN-7915 (40 mg/kg)
[26] = THA, 1-TC model, pretreatment PFE-360 (0.5 mg/kg)
[27] = THA, 2-TC model, pretreatment GEN-7915 (40 mg/kg)
[28] = THA, 2-TC model, pretreatment PFE-360 (0.5 mg/kg)

T1 sequence (Q5S007 whole entry): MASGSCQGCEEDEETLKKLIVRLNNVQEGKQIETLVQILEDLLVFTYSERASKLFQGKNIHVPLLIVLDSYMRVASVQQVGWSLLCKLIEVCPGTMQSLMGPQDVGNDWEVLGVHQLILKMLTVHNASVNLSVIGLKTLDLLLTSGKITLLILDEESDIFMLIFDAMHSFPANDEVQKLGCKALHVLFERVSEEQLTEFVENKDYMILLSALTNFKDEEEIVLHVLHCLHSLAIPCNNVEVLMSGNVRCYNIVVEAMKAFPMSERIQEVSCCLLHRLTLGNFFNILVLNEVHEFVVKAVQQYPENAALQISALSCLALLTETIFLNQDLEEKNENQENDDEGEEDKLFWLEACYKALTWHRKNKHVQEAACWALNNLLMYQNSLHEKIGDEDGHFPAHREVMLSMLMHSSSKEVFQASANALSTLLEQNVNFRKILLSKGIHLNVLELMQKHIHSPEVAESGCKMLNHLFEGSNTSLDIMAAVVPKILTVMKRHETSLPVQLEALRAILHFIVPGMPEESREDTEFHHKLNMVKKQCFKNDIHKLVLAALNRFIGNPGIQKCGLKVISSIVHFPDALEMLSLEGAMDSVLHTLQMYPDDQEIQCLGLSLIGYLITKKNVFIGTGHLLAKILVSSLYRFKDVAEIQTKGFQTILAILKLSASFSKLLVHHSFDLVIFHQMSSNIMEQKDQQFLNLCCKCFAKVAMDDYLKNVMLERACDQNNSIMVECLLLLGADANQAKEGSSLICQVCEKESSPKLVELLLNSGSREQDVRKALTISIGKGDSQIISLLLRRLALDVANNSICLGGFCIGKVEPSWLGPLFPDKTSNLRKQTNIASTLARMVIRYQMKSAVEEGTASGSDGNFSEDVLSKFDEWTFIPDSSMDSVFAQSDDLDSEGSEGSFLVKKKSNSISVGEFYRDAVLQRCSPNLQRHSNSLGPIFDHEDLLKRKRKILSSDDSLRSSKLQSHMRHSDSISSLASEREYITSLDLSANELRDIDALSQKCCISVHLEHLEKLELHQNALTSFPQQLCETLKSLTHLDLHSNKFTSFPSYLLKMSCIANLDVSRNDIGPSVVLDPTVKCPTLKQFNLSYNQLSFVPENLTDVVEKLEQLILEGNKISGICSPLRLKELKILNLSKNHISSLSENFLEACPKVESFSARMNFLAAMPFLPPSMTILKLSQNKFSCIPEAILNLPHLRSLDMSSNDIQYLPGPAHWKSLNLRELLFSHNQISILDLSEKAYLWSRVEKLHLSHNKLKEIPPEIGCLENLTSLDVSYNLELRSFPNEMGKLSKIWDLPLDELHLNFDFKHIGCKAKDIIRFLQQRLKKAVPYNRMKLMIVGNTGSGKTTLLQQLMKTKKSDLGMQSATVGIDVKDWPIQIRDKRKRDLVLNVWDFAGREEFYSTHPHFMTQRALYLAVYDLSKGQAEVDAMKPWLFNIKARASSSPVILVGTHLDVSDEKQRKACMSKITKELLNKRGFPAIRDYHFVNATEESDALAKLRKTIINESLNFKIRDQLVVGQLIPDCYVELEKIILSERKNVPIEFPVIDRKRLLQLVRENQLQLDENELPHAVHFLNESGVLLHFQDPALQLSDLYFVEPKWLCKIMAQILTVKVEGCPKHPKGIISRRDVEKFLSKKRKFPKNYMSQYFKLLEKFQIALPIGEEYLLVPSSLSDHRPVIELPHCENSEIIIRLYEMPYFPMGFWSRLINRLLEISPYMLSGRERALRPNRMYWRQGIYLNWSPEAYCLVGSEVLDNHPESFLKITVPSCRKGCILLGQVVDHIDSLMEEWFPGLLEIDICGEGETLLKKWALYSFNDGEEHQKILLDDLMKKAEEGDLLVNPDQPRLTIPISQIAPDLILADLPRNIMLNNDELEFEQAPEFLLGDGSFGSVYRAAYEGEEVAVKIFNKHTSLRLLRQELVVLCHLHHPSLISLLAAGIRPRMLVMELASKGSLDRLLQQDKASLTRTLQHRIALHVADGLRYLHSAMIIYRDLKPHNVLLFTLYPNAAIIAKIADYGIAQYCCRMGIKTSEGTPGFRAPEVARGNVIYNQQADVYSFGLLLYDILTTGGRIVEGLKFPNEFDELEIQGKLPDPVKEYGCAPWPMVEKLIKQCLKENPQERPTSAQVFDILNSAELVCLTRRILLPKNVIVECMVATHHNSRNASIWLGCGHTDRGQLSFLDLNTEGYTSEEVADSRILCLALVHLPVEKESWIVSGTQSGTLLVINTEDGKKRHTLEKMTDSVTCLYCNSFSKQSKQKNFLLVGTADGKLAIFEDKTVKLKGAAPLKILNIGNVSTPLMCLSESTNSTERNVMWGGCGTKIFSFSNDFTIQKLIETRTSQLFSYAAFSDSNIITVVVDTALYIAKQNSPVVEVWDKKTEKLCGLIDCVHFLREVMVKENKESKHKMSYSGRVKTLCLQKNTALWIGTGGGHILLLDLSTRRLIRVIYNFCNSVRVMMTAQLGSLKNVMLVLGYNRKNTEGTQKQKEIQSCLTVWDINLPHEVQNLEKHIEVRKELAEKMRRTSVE

C[C@@H]1C[C@@H]([18F])CN1c1c(C#N)c2c(N)nccc2n1C [[^18F]1, 4-Amino-2-((2R,4R)-4-[^18F]fluoro-2-methylpyrrolidin-1-yl)-1-methyl-1H-pyrrolo[3,2-c]pyridine-3-carbonitrile]
VT (cynomolgus monkey brain; ACC, 1-TC model, Baseline): 6.03
VT/fp (cynomolgus monkey brain; ACC, 1-TC model, Baseline): 17.7
VT (cynomolgus monkey brain; [1]): 8.50
VT/fp (cynomolgus monkey brain; [1]): 20.9
VT (cynomolgus monkey brain; [2]): 9.28
VT/fp (cynomolgus monkey brain; [2]): 20.2
VT (cynomolgus monkey brain; ACC, 2-TC model, Baseline): 6.04
VT (cynomolgus monkey brain; [3]): 8.71
VT/fp (cynomolgus monkey brain; [3]): 21.4
VT (cynomolgus monkey brain; [4]): 9.39
VT/fp (cynomolgus monkey brain; [4]): 20.4
VT (cynomolgus monkey brain; AMY, 1-TC model, Baseline): 6.15
VT/fp (cynomolgus monkey brain; AMY, 1-TC model, Baseline): 18.1
VT (cynomolgus monkey brain; [5]): 7.29
VT/fp (cynomolgus monkey brain; [5]): 17.9
VT (cynomolgus monkey brain; [6]): 7.56
VT/fp (cynomolgus monkey brain; [6]): 16.4
VT (cynomolgus monkey brain; AMY, 2-TC model, Baseline): 6.23
VT/fp (cynomolgus monkey brain; AMY, 2-TC model, Baseline): 18.3
VT (cynomolgus monkey brain; [7]): 7.36
VT/fp (cynomolgus monkey brain; [7]): 18.1
VT (cynomolgus monkey brain; [8]): 7.78
VT/fp (cynomolgus monkey brain; [8]): 16.9
VT (cynomolgus monkey brain; CAU, 1-TC model, Baseline): 5.83
VT/fp (cynomolgus monkey brain; CAU, 1-TC model, Baseline): 17.2
VT (cynomolgus monkey brain; [9]): 7.78
VT/fp (cynomolgus monkey brain; [9]): 19.1
VT (cynomolgus monkey brain; [10]): 8.50
VT/fp (cynomolgus monkey brain; [10]): 18.5
VT (cynomolgus monkey brain; CAU, 2-TC model, Baseline): 5.87
VT/fp (cynomolgus monkey brain; CAU, 2-TC model, Baseline): 17.3
VT (cynomolgus monkey brain; [11]): 7.89
VT/fp (cynomolgus monkey brain; [11]): 19.4
VT (cynomolgus monkey brain; [12]): 8.50
VT/fp (cynomolgus monkey brain; [12]): 18.5
VT (cynomolgus monkey brain; CB, 1-TC model, Baseline): 4.13
VT/fp (cynomolgus monkey brain; CB, 1-TC model, Baseline): 12.2
VT (cynomolgus monkey brain; [13]): 5.03
VT/fp (cynomolgus monkey brain; [13]): 12.3
VT (cynomolgus monkey brain; [14]): 5.67
VT/fp (cynomolgus monkey brain; [14]): 12.3
VT (cynomolgus monkey brain; CB, 2-TC model, Baseline): 4.41
VT/fp (cynomolgus monkey brain; CB, 2-TC model, Baseline): 13.0
VT (cynomolgus monkey brain; [15]): 5.08
VT/fp (cynomolgus monkey brain; [15]): 12.5
VT (cynomolgus monkey brain; [16]): 5.69
VT/fp (cynomolgus monkey brain; [16]): 12.4
VT (cynomolgus monkey brain; FC, 1-TC model, Baseline): 5.26
VT/fp (cynomolgus monkey brain; FC, 1-TC model, Baseline): 15.5
VT (cynomolgus monkey brain; [17]): 6.53
VT/fp (cynomolgus monkey brain; [17]): 16.0
VT (cynomolgus monkey brain; [18]): 7.68
VT/fp (cynomolgus monkey brain; [18]): 16.7
VT (cynomolgus monkey brain; FC, 2-TC model, Baseline): 5.26
VT/fp (cynomolgus monkey brain; FC, 2-TC model, Baseline): 15.5
VT (cynomolgus monkey brain; [19]): 6.74
VT/fp (cynomolgus monkey brain; [19]): 16.5
VT (cynomolgus monkey brain; [20]): 7.72
VT/fp (cynomolgus monkey brain; [20]): 16.8
Brain uptake (cynomolgus monkey brain; PET, iv, baseline): > 3 %ID
Brain washout (cynomolgus monkey brain; PET, iv, baseline): rapid washout
Regional distribution of brain uptake (cynomolgus monkey brain; PET, iv, baseline): regional differences in uptake
VT (cynomolgus monkey brain; PUT, 1-TC model, Baseline): 5.71
VT/fp (cynomolgus monkey brain; PUT, 1-TC model, Baseline): 16.8
VT (cynomolgus monkey brain; [21]): 7.56
VT/fp (cynomolgus monkey brain; [21]): 18.6
VT (cynomolgus monkey brain; [22]): 8.25
VT/fp (cynomolgus monkey brain; [22]): 17.9
VT (cynomolgus monkey brain; PUT, 2-TC model, Baseline): 5.89
VT/fp (cynomolgus monkey brain; PUT, 2-TC model, Baseline): 17.3
VT (cynomolgus monkey brain; [23]): 7.71
VT/fp (cynomolgus monkey brain; [23]): 18.9
VT (cynomolgus monkey brain; [24]): 8.25
VT/fp (cynomolgus monkey brain; [24]): 17.9
VT (cynomolgus monkey brain; THA, 1-TC model, Baseline): 4.80
VT/fp (cynomolgus monkey brain; THA, 1-TC model, Baseline): 14.1
VT (cynomolgus monkey brain; [25]): 6.05
VT/fp (cynomolgus monkey brain; [25]): 14.9
VT (cynomolgus monkey brain; [26]): 6.68
VT/fp (cynomolgus monkey brain; [26]): 14.5
VT (cynomolgus monkey brain; THA, 2-TC model, Baseline): 4.95
VT/fp (cynomolgus monkey brain; THA, 2-TC model, Baseline): 14.6
VT (cynomolgus monkey brain; [27]): 6.18
VT/fp (cynomolgus monkey brain; [27]): 15.2
VT (cynomolgus monkey brain; [28]): 6.68
VT/fp (cynomolgus monkey brain; [28]): 14.5
Binding of radioligand in brain slices (ARG) (LRRK2): clear binding

C[C@@H]1C[C@@H]([18F])CN1c1c(C#N)c2c(N)ncnc2n1C [[^18F]2, 4-Amino-6-((2R,4R)-4-[^18F]fluoro-2-methyl Pyrrolidin-1-yl)-7-methyl-7H-pyrrolo[2,3-d]pyrimidine-5-carbonitrile]
Brain uptake at peak (cynomolgus monkey brain; PET, iv, baseline): 3.8–4.4 %ID
Brain washout (cynomolgus monkey brain; PET, iv, baseline): fast washout
Regional distribution of brain uptake (cynomolgus monkey brain; PET, iv, baseline): relatively uniform distribution across all the brain regions
Time to reach half the peak brain level (cynomolgus monkey brain; PET, iv, baseline): ≤ 20 min
Binding of radioligand in brain slices (ARG) (LRRK2): displayed binding
